Reference: ChEMBL document CHEMBL4507276 (2021)

Legend:
[1] = target: Serine/threonine-protein kinase TNNI3K (Homo sapiens) (UniProt Q59H18); conditions: Compound concentration 1000.0 nM
[2] = target: Alpha-2C adrenergic receptor (Homo sapiens) (UniProt P18825); conditions: Compound concentration 10.0 uM
[3] = test system: Proto-oncogene tyrosine-protein kinase receptor Ret (Homo sapiens), P07949 [Y791F]; assay: RET Y791F Invitrogen selectivity data (BI); conditions: Compound concentration 3.0 uM
[4] = target: Mitogen-activated protein kinase 8 (Homo sapiens) (UniProt P45983); assay: MAPK8 Invitrogen selectivity data (BI); conditions: Compound concentration 3.0 uM
[5] = target: Serine/threonine-protein kinase PAK 4 (Homo sapiens) (UniProt O96013); assay: PAK4 Invitrogen selectivity data (BI); conditions: Compound concentration 3.0 uM
[6] = target: D(1A) dopamine receptor (Homo sapiens) (UniProt P21728); assay: D1/H Cerep selectivity data (BI); conditions: filed as antagonist, Compound concentration 20.0 uM
[7] = target: Neuropeptide Y receptor type 1 (Homo sapiens) (UniProt P25929); assay: Y1/HUM Cerep selectivity data (BI); conditions: filed as antagonist, Compound concentration 20.0 uM
[8] = target: Gamma-aminobutyric acid receptor subunit alpha-1 (Rattus norvegicus) (UniProt P62813); assay: BZD/CENTR/R Cerep selectivity data (BI); conditions: Compound concentration 20.0 uM
[9] = target: T1, Muscarinic acetylcholine receptor M2 (Homo sapiens) (UniProt P08172); assay: M2/HU Eurofins-Panlabs selectivity data (BI); conditions: Compound concentration 10.0 uM
T1 sequence (whole entry): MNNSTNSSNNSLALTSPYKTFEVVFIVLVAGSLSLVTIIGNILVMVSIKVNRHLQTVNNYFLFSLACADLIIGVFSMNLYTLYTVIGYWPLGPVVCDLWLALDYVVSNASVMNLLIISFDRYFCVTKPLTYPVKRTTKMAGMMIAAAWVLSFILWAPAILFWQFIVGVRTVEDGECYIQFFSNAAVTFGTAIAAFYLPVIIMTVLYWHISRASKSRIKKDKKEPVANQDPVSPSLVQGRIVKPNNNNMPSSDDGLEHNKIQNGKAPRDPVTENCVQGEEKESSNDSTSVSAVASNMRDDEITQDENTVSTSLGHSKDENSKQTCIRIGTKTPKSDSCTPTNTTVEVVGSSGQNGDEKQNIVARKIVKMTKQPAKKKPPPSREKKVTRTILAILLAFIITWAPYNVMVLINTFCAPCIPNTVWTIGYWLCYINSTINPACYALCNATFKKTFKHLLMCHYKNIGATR

[10] = target: Interstitial collagenase (Homo sapiens) (UniProt P03956); assay: MMP1 (H) Cerep selectivity data (BI); conditions: Compound concentration 20.0 uM
[11] = test system: Epidermal growth factor receptor (Homo sapiens), P00533 [UNDEFINED MUTATION]; assay: EGFRT790L858 Invitrogen selectivity data (BI); conditions: Compound concentration 3.0 uM
[12] = target: Mitogen-activated protein kinase kinase kinase 11 (Homo sapiens) (UniProt Q16584); assay: MAP3K11 Invitrogen selectivity data (BI); conditions: Compound concentration 3.0 uM
[13] = target: Cysteinyl leukotriene receptor 1 (Homo sapiens) (UniProt Q9Y271); assay: CYSLT1_HS Eurofins-Panlabs selectivity data (BI); conditions: Compound concentration 10.0 uM
[14] = target: Mast/stem cell growth factor receptor Kit (Homo sapiens) (UniProt P10721); assay: KIT Invitrogen selectivity data (BI); conditions: Compound concentration 3.0 uM
[15] = target: MAP kinase-interacting serine/threonine-protein kinase 2 (Homo sapiens) (UniProt Q9HBH9); assay: MKNK2 (MNK2) Invitrogen selectivity data (BI); conditions: Compound concentration 3.0 uM
[16] = target: Sphingosine kinase 1 (Homo sapiens) (UniProt Q9NYA1); assay: SPHK1 Invitrogen selectivity data (BI); conditions: Compound concentration 3.0 uM
[17] = target: Platelet-activating factor receptor (Homo sapiens) (UniProt P25105); assay: PAF/H Eurofins-Panlabs selectivity data (BI); conditions: Compound concentration 10.0 uM
[18] = target: Alpha-1D adrenergic receptor (Homo sapiens) (UniProt P25100); conditions: Compound concentration 10.0 uM
[19] = target: Dual specificity mitogen-activated protein kinase kinase 2 (Homo sapiens) (UniProt P36507); assay: MAP2K2 Invitrogen selectivity data (BI); conditions: Compound concentration 3.0 uM
[20] = test system: Tyrosine-protein kinase JAK2 (Homo sapiens), O60674 [V617F]; assay: JAK2 V617F Invitrogen selectivity data (BI); conditions: Compound concentration 3.0 uM
[21] = target: G protein-coupled receptor kinase 6 (Homo sapiens) (UniProt P43250); assay: GRK6 Invitrogen selectivity data (BI); conditions: Compound concentration 3.0 uM
[22] = target: T2, Homeodomain-interacting protein kinase 4 (Homo sapiens) (UniProt Q8NE63); assay: HIPK4 Invitrogen selectivity data (BI); conditions: Compound concentration 3.0 uM
T2 sequence (whole entry): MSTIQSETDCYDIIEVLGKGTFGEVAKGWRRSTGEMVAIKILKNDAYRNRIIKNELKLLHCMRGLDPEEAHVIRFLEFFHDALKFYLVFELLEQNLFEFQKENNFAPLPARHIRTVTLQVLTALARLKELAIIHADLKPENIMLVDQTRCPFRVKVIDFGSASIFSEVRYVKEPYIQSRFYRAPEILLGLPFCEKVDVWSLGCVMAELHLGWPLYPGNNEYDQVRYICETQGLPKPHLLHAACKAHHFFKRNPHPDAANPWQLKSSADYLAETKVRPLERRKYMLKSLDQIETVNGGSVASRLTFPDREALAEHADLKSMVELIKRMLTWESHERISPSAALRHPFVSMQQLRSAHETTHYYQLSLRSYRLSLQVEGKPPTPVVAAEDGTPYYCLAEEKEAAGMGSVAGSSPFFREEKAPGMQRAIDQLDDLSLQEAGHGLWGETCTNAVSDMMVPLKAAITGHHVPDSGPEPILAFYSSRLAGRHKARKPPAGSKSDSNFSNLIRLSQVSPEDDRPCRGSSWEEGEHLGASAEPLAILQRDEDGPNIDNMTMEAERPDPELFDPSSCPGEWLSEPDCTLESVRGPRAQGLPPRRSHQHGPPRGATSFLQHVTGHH

[23] = target: Phosphatidylinositol 3-kinase regulatory subunit gamma (Bos taurus) (UniProt O46404); assay: PROTKINP55 Cerep selectivity data (BI); conditions: Compound concentration 20.0 uM
[24] = target: Fibroblast growth factor receptor 2 (Homo sapiens) (UniProt P21802); assay: FGFR2 Invitrogen selectivity data (BI); conditions: Compound concentration 3.0 uM
[25] = target: PI3-kinase p110-delta/p85-alpha (Homo sapiens) (UniProt P27986+O00329); assay: PIK3CDPIK3R1 Invitrogen selectivity data (BI); assay type: protein-complex assay; conditions: Compound concentration 3.0 uM
[26] = target: Platelet-activating factor receptor (Homo sapiens) (UniProt P25105); assay: PAF Cerep selectivity data (BI); conditions: filed as agonist, Compound concentration 20.0 uM
[27] = target: Glucagon receptor (Homo sapiens) (UniProt P47871); assay: GLUCAGONH_AGON Cerep selectivity data (BI); conditions: filed as agonist, Compound concentration 20.0 uM
[28] = target: Tyrosine-protein kinase BTK (Homo sapiens) (UniProt Q06187); assay: BTK Invitrogen selectivity data (BI); conditions: Compound concentration 3.0 uM
[29] = target: Receptor tyrosine-protein kinase erbB-2 (Homo sapiens) (UniProt P04626); assay: ERBB2 Invitrogen selectivity data (BI); conditions: Compound concentration 3.0 uM
[30] = test system: Epidermal growth factor receptor (Homo sapiens), P00533 [L861Q]; assay: EGFR L861Q Invitrogen selectivity data (BI); conditions: Compound concentration 3.0 uM
[31] = target: Prostacyclin receptor (Homo sapiens) (UniProt P43119); assay: PGI2/H Cerep selectivity data (BI); conditions: Compound concentration 20.0 uM

Sequence of Platelet-activating factor receptor (Homo sapiens) (P25105 whole entry): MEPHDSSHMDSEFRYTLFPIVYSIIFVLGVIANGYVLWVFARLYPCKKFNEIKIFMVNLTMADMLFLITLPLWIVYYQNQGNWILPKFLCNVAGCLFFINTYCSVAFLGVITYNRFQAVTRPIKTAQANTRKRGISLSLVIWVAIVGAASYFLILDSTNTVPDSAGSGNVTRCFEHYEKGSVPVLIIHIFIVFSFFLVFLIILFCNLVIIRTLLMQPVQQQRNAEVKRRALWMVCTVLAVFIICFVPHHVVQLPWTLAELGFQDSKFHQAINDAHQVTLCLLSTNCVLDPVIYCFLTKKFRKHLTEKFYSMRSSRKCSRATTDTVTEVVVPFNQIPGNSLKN
Sequence of Receptor tyrosine-protein kinase erbB-2 (Homo sapiens) (P04626 whole entry): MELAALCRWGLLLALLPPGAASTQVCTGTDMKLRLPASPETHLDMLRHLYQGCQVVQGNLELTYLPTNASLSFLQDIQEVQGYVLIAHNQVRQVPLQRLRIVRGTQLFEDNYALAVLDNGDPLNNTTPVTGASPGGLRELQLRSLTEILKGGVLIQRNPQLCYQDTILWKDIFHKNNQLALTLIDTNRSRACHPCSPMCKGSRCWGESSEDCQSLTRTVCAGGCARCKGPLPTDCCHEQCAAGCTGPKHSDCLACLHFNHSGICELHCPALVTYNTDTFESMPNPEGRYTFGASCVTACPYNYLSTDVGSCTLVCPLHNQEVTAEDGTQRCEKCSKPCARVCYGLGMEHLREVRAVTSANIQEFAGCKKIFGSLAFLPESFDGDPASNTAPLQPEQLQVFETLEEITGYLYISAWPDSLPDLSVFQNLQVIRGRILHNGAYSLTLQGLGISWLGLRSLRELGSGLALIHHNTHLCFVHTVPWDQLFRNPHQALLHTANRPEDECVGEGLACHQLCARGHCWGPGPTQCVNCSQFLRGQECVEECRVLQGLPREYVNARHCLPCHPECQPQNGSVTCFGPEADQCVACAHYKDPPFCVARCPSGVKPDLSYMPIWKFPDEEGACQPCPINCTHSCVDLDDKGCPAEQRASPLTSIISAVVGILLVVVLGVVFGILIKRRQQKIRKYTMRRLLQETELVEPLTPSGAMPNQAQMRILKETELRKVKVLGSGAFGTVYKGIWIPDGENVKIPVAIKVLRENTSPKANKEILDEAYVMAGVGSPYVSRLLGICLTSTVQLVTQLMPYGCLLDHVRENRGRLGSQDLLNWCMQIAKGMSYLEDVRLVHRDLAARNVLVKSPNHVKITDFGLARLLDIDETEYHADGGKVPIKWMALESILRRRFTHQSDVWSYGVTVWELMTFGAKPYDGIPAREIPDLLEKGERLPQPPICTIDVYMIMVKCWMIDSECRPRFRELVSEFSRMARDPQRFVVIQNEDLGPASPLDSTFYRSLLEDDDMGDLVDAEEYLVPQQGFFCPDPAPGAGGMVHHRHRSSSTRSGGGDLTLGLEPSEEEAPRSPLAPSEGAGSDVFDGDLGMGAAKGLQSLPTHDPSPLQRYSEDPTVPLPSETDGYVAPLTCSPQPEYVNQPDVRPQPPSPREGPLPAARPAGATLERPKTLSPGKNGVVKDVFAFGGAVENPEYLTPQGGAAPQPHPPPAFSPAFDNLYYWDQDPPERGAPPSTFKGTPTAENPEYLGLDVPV
Sequence of Sphingosine kinase 1 (Homo sapiens) (Q9NYA1 whole entry): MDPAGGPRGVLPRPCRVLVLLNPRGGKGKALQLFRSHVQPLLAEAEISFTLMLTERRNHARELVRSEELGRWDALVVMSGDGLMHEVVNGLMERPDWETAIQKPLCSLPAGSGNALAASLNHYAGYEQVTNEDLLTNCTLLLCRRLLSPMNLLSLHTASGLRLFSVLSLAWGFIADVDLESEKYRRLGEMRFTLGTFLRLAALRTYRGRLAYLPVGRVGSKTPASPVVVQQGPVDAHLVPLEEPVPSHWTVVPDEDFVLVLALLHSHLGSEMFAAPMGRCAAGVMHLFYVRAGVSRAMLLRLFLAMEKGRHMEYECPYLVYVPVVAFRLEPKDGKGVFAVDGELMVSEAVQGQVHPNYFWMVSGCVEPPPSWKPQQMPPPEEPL
Sequence of Mitogen-activated protein kinase 8 (Homo sapiens) (P45983 whole entry): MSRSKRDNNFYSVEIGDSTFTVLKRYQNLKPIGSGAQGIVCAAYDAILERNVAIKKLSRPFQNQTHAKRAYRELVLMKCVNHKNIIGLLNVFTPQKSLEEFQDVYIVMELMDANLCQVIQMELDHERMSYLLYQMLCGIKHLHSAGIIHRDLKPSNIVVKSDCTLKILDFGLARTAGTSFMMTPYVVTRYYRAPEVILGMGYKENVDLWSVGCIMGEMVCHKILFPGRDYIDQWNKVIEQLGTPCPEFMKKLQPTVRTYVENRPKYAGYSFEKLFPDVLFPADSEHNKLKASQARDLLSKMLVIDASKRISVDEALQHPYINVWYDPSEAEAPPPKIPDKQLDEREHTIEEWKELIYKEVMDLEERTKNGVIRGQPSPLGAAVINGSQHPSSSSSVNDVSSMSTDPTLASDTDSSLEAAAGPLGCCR
Sequence of Mast/stem cell growth factor receptor Kit (Homo sapiens) (P10721 whole entry): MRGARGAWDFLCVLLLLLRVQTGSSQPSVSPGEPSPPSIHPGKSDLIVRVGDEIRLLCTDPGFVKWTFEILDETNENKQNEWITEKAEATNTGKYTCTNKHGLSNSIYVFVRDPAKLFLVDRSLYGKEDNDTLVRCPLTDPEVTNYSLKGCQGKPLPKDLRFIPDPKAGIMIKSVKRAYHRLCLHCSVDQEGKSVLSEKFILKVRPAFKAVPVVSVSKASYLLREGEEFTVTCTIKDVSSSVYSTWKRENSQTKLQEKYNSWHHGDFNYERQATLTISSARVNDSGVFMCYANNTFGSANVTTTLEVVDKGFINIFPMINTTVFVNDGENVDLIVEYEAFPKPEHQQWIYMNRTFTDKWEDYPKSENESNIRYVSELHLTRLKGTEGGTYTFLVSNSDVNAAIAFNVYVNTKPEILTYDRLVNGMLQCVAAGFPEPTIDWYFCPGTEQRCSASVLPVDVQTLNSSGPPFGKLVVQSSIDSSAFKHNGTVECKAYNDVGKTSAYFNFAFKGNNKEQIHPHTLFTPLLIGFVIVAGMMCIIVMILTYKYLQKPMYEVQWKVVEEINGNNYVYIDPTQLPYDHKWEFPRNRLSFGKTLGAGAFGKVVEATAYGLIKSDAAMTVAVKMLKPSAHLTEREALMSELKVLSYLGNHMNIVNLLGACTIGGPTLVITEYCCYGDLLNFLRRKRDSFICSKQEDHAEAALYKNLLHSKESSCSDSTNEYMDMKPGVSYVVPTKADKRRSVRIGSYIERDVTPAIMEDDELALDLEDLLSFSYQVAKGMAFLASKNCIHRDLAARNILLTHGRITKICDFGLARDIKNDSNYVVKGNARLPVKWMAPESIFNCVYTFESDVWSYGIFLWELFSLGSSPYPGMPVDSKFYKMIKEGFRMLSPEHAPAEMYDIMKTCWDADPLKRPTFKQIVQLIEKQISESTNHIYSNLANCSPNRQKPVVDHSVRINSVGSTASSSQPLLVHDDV
Sequence of Alpha-2C adrenergic receptor (Homo sapiens) (P18825 whole entry): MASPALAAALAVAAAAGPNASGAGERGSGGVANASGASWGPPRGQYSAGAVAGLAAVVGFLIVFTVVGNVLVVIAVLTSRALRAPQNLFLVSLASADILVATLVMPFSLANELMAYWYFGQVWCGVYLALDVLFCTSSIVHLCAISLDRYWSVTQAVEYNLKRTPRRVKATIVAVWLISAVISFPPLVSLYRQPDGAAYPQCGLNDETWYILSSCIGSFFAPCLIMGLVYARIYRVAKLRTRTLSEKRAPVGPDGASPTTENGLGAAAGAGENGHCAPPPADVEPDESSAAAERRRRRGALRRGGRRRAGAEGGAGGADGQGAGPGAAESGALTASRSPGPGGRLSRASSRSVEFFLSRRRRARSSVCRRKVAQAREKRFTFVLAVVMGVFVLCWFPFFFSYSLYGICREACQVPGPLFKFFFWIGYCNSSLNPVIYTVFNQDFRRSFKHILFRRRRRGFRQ
Sequence of Tyrosine-protein kinase JAK2 (Homo sapiens), O60674 [V617F] (O60674 whole entry V617F): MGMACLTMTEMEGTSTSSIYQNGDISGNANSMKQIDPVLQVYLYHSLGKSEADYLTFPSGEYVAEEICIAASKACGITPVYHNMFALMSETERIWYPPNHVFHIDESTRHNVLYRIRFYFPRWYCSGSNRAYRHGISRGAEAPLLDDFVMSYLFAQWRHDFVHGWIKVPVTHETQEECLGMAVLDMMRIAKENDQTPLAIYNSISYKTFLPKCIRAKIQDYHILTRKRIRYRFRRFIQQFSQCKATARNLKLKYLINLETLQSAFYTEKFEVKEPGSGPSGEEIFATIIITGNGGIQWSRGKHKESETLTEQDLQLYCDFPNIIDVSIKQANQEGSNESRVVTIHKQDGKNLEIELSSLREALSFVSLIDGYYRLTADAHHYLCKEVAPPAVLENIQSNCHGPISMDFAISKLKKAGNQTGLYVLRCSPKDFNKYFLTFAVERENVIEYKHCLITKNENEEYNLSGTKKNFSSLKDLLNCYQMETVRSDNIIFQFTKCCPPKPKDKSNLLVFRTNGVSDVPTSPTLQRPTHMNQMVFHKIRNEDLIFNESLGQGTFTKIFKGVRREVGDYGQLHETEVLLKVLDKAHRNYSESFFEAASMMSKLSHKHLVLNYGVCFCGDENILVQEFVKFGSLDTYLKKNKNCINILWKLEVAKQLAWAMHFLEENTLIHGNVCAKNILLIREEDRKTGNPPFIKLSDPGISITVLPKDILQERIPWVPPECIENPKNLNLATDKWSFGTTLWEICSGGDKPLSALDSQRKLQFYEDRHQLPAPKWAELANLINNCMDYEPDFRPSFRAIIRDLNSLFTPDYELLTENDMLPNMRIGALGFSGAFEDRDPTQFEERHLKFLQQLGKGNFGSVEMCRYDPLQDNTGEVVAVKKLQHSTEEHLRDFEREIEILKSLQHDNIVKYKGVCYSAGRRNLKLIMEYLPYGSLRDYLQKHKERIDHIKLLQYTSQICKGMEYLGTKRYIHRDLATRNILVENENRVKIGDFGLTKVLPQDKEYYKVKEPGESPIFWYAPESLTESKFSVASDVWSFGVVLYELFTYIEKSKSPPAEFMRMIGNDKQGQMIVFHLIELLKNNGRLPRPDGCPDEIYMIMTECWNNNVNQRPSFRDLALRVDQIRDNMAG

CN(C)C(=O)Cn1cc(-c2nc(C3(c4ccc(-c5cnc(N)nc5)cc4)CC3)no2)cn1 [BI 0153]
inactive: residual activity [1] 100% | inhibition [2] 4.1%

CN(C)C(=O)Cn1cc(-c2nc([C@@](C)(c3ccc(-c4cnc(N)nc4)cc3)C3CC3)no2)cn1 [BI 665915]
inactive: residual activity [3] 60% | residual activity [4] 93% | residual activity [5] 93.5% | residual activity [6] 98% | residual activity [7] 104% | residual activity [8] 117% | residual activity [9] 98% | residual activity [10] 97% | residual activity [11] 101% | residual activity [12] 96% | residual activity [13] 100% | residual activity [14] 85% | residual activity [15] 99% | residual activity [16] 95.5% | residual activity [17] 71% | inhibition [18] -3.06% | residual activity [19] 96% | residual activity [20] 96% | residual activity [21] 102% | residual activity [22] 98.5% | residual activity [23] 98% | residual activity [24] 89% | residual activity [25] 99.5% | residual activity [26] 65% | residual activity [27] 107% | residual activity [28] 89.5% | residual activity [29] 108% | residual activity [30] 98% | residual activity [31] 94%
